The target of data set [1] is T1, hSVCT2 (Homo sapiens, UniProt Q9UGH3).
T1 construct: expressed in transfected cells; host or cells: HEK-TREx cells, tetracycline-induced
Kind of data set: hSVCT2 competition uptake assay in HEK-TREx-hSVCT2 cells. Format: cell-based. On the procedure:
A modified competition uptake assay was developed to determine the ability of a test compound(s) to inhibit the uptake of radiolabeled substrates into […] induced to over-express hSVCT2. The results are stated as affinities (IC50). The competition uptake assay was prepared as follows: Compounds were prepared for assay by diluting a 100 mM stock concentration (in DMSO) to the appropriate working concentration. Typically, seven-point dose response curves were prepared starting at a final assay concentration of 1 mM and carrying out three-fold dilutions. […] Scintillation fluid (200 μl) (Optiphase Supermix (Perkin Elmer) was added to each well, and the plate was covered with a 96-well adhesive plate cover and placed on a shaker for 10 minutes. The plates were counted on a 96-well plate scintillation counter for 60 sec/well. The data were analyzed using a sigmoidal dose response curve-fitting program (Prism, GraphPad, Inc, San Diego, Calif.; equation: one-site competition). FIG. 2 depicts the results of a competition experiment using HEK-TREx-SVCT2 cells. ^3H-Ascorbic acid was used as the substrate and unlabeled ascorbic acid was used as the competitor. […] Non-specific uptake was determined by measuring the uptake into cells not induced to express the transporter (“no tet”). […]

Data set [2] deals with T1, hSVCT2. Kind of data set: hSVCT2 direct uptake assay in HEK-TREx-hSVCT2 cells (LC-MS-MS). The format is cell-based. To be noted: HEK-TREx-hSVCT2 cells induced to express hSVCT2. Here is the method: A modified direct uptake assay was developed to determine the ability of test compounds to be transported into HEK-TREx cells induced to over-express hSVCT2. Four concentrations (bracketing the affinity as measured by competition assays) per compound were routinely tested. Non-specific uptake was determined by measuring the uptake into cells not induced to express the transporter (“no tet”).
The direct uptake assays were prepared as follows: Compounds were prepared for assay by diluting a 100 mM stock concentration (in DMSO or water, depending on compound solubility) to the appropriate working concentration. Typically, four concentrations bracketing the IC50 were tested. The highest test concentration for each compound was made in an Eppendorf tube and diluted into HBSS. The samples were robustly vortexed and centrifuged for 10 minutes at 13,200 rpm to spin down any precipitate. The supernatant from these samples (˜150 μl/well) was carefully removed and placed into six wells of row A (cmpd 1: A1-6; cmpd 2: A7-12) or row E (cmpd 3: E1-6; cmpd 4: E7-12) of a 96-well polypropylene “compound” plate. Three additional 2-fold dilutions were made in the subsequent rows (B-D or […]) in HBSS. […]

The target in the next data set is T2, PgP (Homo sapiens, UniProt P08183).
T2 construct: expressed in transfected cells; host or cells: MDCK cells, tetracycline-inducible
Kind of data set: Transwell monolayer efflux assay in TREx-PgP MDCK cells. The format is in vitro ADME. On the procedure: Transwell monolayer efflux assays can be performed by transfecting MDCK cells with the tetracycline-inducible TREx-PgP expression vector. The cells optionally can be transfected with a nucleic acid encoding the transporter of interest. The transfected cells are seeded on polycarbonate filter membranes in transwell dishes and grown for 3-5 days, yielding a polarized monolayer with tight junctions between cells.

The mark [3] stands for this setting: 2.5 nM, in the presence of 250 μM verapamil.

T1 sequence (Q9UGH3 whole entry): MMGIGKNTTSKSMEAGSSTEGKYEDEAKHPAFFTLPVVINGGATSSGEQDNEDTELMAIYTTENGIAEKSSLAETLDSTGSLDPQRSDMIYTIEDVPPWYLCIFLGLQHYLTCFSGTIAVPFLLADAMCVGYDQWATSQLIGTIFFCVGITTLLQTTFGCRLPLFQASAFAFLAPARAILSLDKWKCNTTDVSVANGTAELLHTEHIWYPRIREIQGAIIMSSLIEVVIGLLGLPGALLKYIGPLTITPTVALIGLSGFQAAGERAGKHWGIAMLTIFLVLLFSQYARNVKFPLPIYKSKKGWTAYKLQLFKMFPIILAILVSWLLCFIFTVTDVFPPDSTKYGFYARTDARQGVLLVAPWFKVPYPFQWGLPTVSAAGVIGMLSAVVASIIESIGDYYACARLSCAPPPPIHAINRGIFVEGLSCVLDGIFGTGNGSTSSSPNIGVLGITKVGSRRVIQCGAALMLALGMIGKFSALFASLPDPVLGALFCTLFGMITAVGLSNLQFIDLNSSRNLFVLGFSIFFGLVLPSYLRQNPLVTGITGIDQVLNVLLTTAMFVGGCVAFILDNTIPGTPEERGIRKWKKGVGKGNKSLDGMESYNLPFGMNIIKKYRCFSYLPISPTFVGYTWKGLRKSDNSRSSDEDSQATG
T2 sequence (P08183 whole entry): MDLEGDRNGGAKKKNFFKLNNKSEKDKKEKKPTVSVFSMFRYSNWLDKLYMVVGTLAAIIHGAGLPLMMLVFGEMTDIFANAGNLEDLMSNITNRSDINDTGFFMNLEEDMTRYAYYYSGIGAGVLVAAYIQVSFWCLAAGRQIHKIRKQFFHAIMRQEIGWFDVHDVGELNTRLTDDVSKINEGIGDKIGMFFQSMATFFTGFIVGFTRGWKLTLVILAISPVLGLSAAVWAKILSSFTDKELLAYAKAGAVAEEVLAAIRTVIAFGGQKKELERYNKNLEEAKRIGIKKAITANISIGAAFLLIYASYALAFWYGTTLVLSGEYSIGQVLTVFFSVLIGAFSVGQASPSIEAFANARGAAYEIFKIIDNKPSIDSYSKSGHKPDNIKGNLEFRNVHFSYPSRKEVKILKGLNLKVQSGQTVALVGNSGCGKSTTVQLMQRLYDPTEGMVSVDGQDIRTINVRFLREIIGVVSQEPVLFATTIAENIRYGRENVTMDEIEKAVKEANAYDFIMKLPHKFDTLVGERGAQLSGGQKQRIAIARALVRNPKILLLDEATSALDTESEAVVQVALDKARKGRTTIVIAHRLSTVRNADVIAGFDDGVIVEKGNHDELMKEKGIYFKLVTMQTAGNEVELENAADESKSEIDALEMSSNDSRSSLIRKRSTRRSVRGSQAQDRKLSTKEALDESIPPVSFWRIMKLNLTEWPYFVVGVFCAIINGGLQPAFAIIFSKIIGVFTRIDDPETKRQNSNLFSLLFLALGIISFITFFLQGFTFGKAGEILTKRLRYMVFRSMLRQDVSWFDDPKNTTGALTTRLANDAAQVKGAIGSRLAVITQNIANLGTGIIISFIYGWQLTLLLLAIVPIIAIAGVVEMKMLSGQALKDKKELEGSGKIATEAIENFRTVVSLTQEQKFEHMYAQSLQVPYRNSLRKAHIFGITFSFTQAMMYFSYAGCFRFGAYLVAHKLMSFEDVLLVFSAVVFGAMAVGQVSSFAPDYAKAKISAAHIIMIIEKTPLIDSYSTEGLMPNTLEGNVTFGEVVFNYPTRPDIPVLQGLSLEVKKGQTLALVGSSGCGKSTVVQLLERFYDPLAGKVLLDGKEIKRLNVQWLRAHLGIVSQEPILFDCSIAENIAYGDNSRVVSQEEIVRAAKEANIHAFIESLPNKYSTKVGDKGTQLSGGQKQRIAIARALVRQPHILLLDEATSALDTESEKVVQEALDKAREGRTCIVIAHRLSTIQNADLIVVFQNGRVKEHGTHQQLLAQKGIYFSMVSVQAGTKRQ

For `O=C1O[C@H]([C@@H](O)CO)C(O)=C1O` [Ascorbic Acid], the “uptake of labeled ascorbic acid as concentration of unlabeled ascorbic acid increased” value on hSVCT2 [1] (cells induced to express SVCT2, ^3H-ascorbic acid substrate, FIG. 2) was “decreased”. In addition, on hSVCT2 [1] (inhibition of radiolabeled ascorbic acid uptake, HEK-TREx-hSVCT2 cells induced to express hSVCT2), the IC50 turned out to be 55 µM. Also, on hSVCT2 [2], the “Direct Uptake Vmax” value is 21 pmol/min/well.
As for `CC[C@]1(O)C[C@@H]2CN(CCc3c([nH]c4ccccc34)[C@@](C(=O)OC)(c3cc4c(cc3OC)N(C)[C@H]3[C@@](O)(C(=O)OC)[C@H](OC(C)=O)[C@]5(CC)C=CCN6CC[C@]43[C@@H]65)C2)C1` [^3H-vinblastine], the “efflux transporter substrate status” value on PgP was “substrate of PgP”. In addition, on PgP (setting [3]), the “apical to basolateral transport” value is “strongly increased” and the “basolateral to apical transport” value is on record as “strongly decreased”.

Usually IC50 stands for the concentration at which inhibition is half-maximal. Low readings indicate higher potency, high ones lower potency.

Values taken from patent publication US7625718B2, “SVCT2 transporters expressed in blood brain barrier cells” (XenoPort, Inc., priority 2005, dated 2009).
